In US20020169111A1, “Reversal of multidrug resistance in human colon carcinoma cells” (American Cyanamid Comany, priority 1998, published 2002):

How the values were obtained:
Format in all cases: cell-based, human
S1-B1-20 cells [1] = assay: Drug accumulation analysis with [14C] drug; conditions: 90 minutes
Protocol: (§1) To determine the mechanism of resistance, drug resistant and sensitive cells were incubated with radioactive analogues of antitumor agents and cell-associated radioactivity was measured by scintillation counting. Alternatively, surrogates of chemotherapeutic drugs may be used. The surrogate has no antitumor activity itself but interacts with the cancer cell proteins such as P-gp or MRP in a similar manner as an anticancer drug. The surrogate chemotherapeutic drug would have a property such as fluorescence which is useful for determining the drug resistance mechanisms such as efflux.
(§2) Cells were plated in 60 mm dishes (1×10^6 cells per dish) or in 24 well clusters (2 ×10^5 cells per well) and allowed to grow for 1-2 days. […] Drugs used were [^14C]-mitoxantrone (Amersham, 1 or 5 μM; specific activity 66 mCi/mmol) or [^14C]-doxorubicin (Amersham, 0.5 or 3 μM; specific activity 50-62 mCi/mmol ). […] Unbound drug was removed by washing twice in ice-cold phosphate buffered saline (PBS), cells were solubilized in 2 N NaOH at 37° C. for 1-2 hours, and analyzed by scintillation counting. Results were normalized to cell protein content measured by a Lowry assay.
(§3) The cells were then washed, solubilized, and counted in a scintillation counter. Values are mean disintegration per minute per μg protein of triplicate determinations ± standard deviation.

S1-M1-3.2 cells = assay: Drug accumulation analysis with [14C] drug; conditions: S1-M1-3.2 cells
Protocol: as §1, §2, §3

MCF-7/BCRP cells = assay: Dose modifying factor of FTC in BCRP-transfected cells; conditions: MCF-7/BCRP
Protocol: Cell survival was estimated after 3 days using the SRB assay, and EC50 values were determined from cytotoxicity curves.

S1-B1-20 cells [2] = assay: Reversal of resistance in P-gp expressing cells, alone or with 21 μM bisantrene; set-up: Difference Score: unit not given here; conditions: for Per Cent Survival with 21 μM bisantrene / Per Cent Survival Alone / Difference Score: S1-B1-20 cells; for Difference Score: survival alone minus survival with 21 μM bisantrene
Protocol: To determine the specificity of FTC for non P-gp multidrug resistance, FTC was tested on S1-B1-20 cells which were selected for resistance to bisantrene and which express high levels of P-gp (Table 9)(Zhang, et al, Oncol. Res. 6291-301 (1994)). […] The 21 μM concentration of bisantrene is not inhibitory to the growth of the cells. Values shown are mean ± standard deviation from triplicate test wells.

COc1ccc2c3c([nH]c2c1)[C@H](C=C(C)C)N1C(=O)[C@@H]2CCCN2C(=O)[C@@H]1C3 [Fumitremorgin C]
Doxorubicin Drug Accumulation with 1 μM FTC (S1-B1-20 cells [1]; [14C] doxorubicin): 26 ± 1 DPM/μg protein | Mitoxantrone Drug Accumulation with 1 μM FTC (S1-B1-20 cells [1]; [14C] mitoxantrone): 1189 ± 53 DPM/μg protein | increase of amount of doxorubicin retained (S1-M1-3.2 cells; 1 μM FTC): 3.4 fold | increase of amount of mitoxantrone retained (S1-M1-3.2 cells; 1 μM FTC): 2 fold | Doxorubicin Drug Accumulation with 1 μM FTC (S1-M1-3.2 cells; [14C] doxorubicin, 90 minutes): 65 ± 17 DPM/μg protein | Mitoxantrone Drug Accumulation with 1 μM FTC (S1-M1-3.2 cells; [14C] mitoxantrone, 90 minutes): 2220 ± 147 DPM/μg protein | Dose modifying factor (5 μM FTC) (MCF-7/BCRP cells; with Doxorubicin): 6.6 | Dose modifying factor (5 μM FTC) (MCF-7/BCRP cells; with Mitoxantrone): 29.4 | Dose modifying factor (5 μM FTC) (MCF-7/BCRP cells; with Paclitaxel): 1.1 | Dose modifying factor (5 μM FTC) (MCF-7/BCRP cells; with Topotecan): 6.5 | Per Cent Survival with 21 μM bisantrene (S1-B1-20 cells [2]; drug 0.1 μM): 101 ± 1 Per Cent | Per Cent Survival Alone (S1-B1-20 cells [2]; drug 0.1 μM alone): 99 ± 1 Per Cent | Difference Score (S1-B1-20 cells [2]; drug 0.1 μM): −4 | Per Cent Survival with 21 μM bisantrene (S1-B1-20 cells [2]; drug 0.5 μM): 103 ± 1 Per Cent | Per Cent Survival Alone (S1-B1-20 cells [2]; drug 0.5 μM alone): 99 ± 1 Per Cent | Difference Score (S1-B1-20 cells [2]; drug 0.5 μM): −4 | Per Cent Survival with 21 μM bisantrene (S1-B1-20 cells [2]; drug 1 μM): 100 ± 0 Per Cent | Per Cent Survival Alone (S1-B1-20 cells [2]; drug 1 μM alone): 98 ± 3 Per Cent | Difference Score (S1-B1-20 cells [2]; drug 1 μM): −2 | Per Cent Survival with 21 μM bisantrene (S1-B1-20 cells [2]; drug 5 μM): 103 ± 2 Per Cent | Per Cent Survival Alone (S1-B1-20 cells [2]; drug 5 μM alone): 101 ± 3 Per Cent | Difference Score (S1-B1-20 cells [2]; drug 5 μM): −2 | Per Cent Survival with 21 μM bisantrene (S1-B1-20 cells [2]; drug 10 μM): 93 ± 1 Per Cent | Per Cent Survival Alone (S1-B1-20 cells [2]; drug 10 μM alone): 88 ± 0 Per Cent | Difference Score (S1-B1-20 cells [2]; drug 10 μM): −4 | Per Cent Survival with 21 μM bisantrene (S1-B1-20 cells [2]; drug 20 μM): 89 ± 1 Per Cent | Per Cent Survival Alone (S1-B1-20 cells [2]; drug 20 μM alone): 85 ± 0 Per Cent | Difference Score (S1-B1-20 cells [2]; drug 20 μM): −4 | Per Cent Survival with 21 μM bisantrene (S1-B1-20 cells [2]; drug 40 μM): 77 ± 2 Per Cent | Per Cent Survival Alone (S1-B1-20 cells [2]; drug 40 μM alone): 83 ± 1 Per Cent | Difference Score (S1-B1-20 cells [2]; drug 40 μM): 13 | Per Cent Survival with 21 μM bisantrene (S1-B1-20 cells [2]; drug 80 μM): 53 ± 5 Per Cent | Per Cent Survival Alone (S1-B1-20 cells [2]; drug 80 μM alone): 35 ± 1 Per Cent | Difference Score (S1-B1-20 cells [2]; drug 80 μM): −18 | reversal of resistance in P-gp positive S1-B1-20 cells (in words) (S1-B1-20 cells [2]; bisantrene-selected): did not reverse resistance
